This note sets out measurements from patent EP1019422B1, “PHOSPHINE-SUBSTITUTED COBALTICINIUM SALTS, PRODUCTION THEREOF, AND USE OF THE SAME AS CONSTITUENTS OF CATALYSTS” (Celanese Chemicals Europe GmbH, priority 1997, dated 1999).

The data set can be described thus: Solubility properties of the compounds (Table 1). It is filed as physicochemical. Conditions: for Löslichkeitseigenschaften: qualitative, solvents named in the cell. From the text: In Tabelle 1 sind die erfindungsgemäßen Verbindungen bezüglich ihrer Farbe/Konsistenz und bezüglich ihrer Löslichkeitseigenschaften zusammengestellt.

With “1,1'-Bis(diphenylphosphino)cobalticinium Tetrafluoroborat [Beispiel 1]”, the Löslichkeitseigenschaften entry is “löslich in Methylenchlorid, Nitro-methan, Methanol und Aceton”.

As to `C1=CC(P(c2ccccc2)c2ccccc2)C=C1.O=S(=O)([O-])C(F)(F)F.[Co+2].c1ccc(P(c2ccccc2)[c-]2cccc2)cc1` [Beispiel 5, 1,1'-Bis(diphenylphosphino)cobalticinium Triflat], the Löslichkeitseigenschaften result was “löslich in Methylenchlorid, Aceton, Nitromethan, Methanol”.

Turning to “1,1'-Bis(diphenylphosphinoindenyl)-cobalticinium-Tetrafluoroborat [Beispiel 8]”, the Löslichkeitseigenschaften entry is on record as “löslich in Methylenchlorid”.

Consider `C1=CC(P(c2ccccc2)c2ccccc2)C=C1.O=[N+]([O-])[O-].[Co+2].c1ccc(P(c2ccccc2)[c-]2cccc2)cc1` [Beispiel 3, 1,1'-Bis (diphenylphosphino)cobalticinium Nitrat], for which the Löslichkeitseigenschaften entry is “löslich in warmem Wasser”. Also, the “Löslichkeit in Wasser” value (water, in contrast to the other compounds of formula I and the known hexafluorophosphate) is listed as “gute Löslichkeit in Wasser”.

For “1,1'-Bis(diphenylphosphino)cobalticinium Trifluoracetat [Beispiel 6]”, the Löslichkeitseigenschaften result was “löslich in Methylenchlorid, Aceton, Methanol, Nitromethan”.

Turning to `C1=CC(P(c2ccccc2)c2ccccc2)C=C1.[Co+2].c1ccc(P(c2ccccc2)[c-]2cccc2)cc1.c1ccc([B-](c2ccccc2)(c2ccccc2)c2ccccc2)cc1` [Beispiel 7, 1,1'-Bis(diphenylphosphino)cobalticinium Tetraphenylborat], the Löslichkeitseigenschaften entry is listed as “löslich in Methylenchlorid”.

Regarding `C1=CC(P(c2ccccc2)c2ccccc2)C=C1.[Co+2].[F][Sb-]([F])([F])([F])([F])[F].c1ccc(P(c2ccccc2)[c-]2cccc2)cc1` [Beispiel 2, 1,1'-Bis(diphenylphosphino)cobalticinium Hexafluoroantimonat], the Löslichkeitseigenschaften result was “löslich in Methylenchlorid, Nitromethan, Methan und Aceton”.

As for “1,1'-Bis(diphenylphosphino)cobalticinium Tosylat [Beispiel 4]”, the Löslichkeitseigenschaften entry is on record as “löslich in Methylenchlorid, Methanol, Aceton, Nitromethan”.
